From patent publication US10206937B2, “Boronic acid derivatives and therapeutic uses thereof” (Qpex Biopharma, Inc., priority 2014, dated 2019)

Tested on: strains of Enterobacteriaceae producing various carbapenemases (class A, D and B; 169 strains)
Experiment: Meropenem or tebipenem potentiation by Compounds 97 or 62 (MIC)
Type: cell-based
How it was run: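 Meropenem and tebipenem MICs measured alone or with Compound 97 or 62 held at a fixed 8 μg/ml in the growth medium. Panel of 169 clinical Enterobacteriaceae isolates expressing class A, D and B carbapenemases, alone or with other beta-lactamases.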

C[C@@H](O)[C@H]1C(=O)N2C(C(=O)O)=C(S[C@@H]3CN[C@H](C(=O)N(C)C)C3)[C@H](C)[C@H]12 [M]
Meropenem MIC alone (M) (CF1022 Citrobacter freundii SHV-12(2be), TEM-OSBL(2b), IMP-8): Y (MIC of 1 μg/mL to 10 μg/mL) | Meropenem MIC alone (M) (CF1023 Citrobacter freundii SHV-12(2be), TEM-OSBL(2b), CTX-M-3, CMY-34, NDM-1): Z (MIC of greater than 10 μg/mL) | Meropenem MIC alone (M) (EC1061 Escherichia coli NDM-1, CMY-6): Z (MIC of greater than 10 μg/mL) | Meropenem MIC alone (M) (EC1069 Escherichia coli CTX-M-27, NDM-1): Z (MIC of greater than 10 μg/mL) | Meropenem MIC alone (M) (EC1070 Escherichia coli TEM-OSBL(2b), CMY-42, NDM-5): Z (MIC of greater than 10 μg/mL) | Meropenem MIC alone (M) (EC1072 Escherichia coli CTX-M-3, NDM-1): Z (MIC of greater than 10 μg/mL) | Meropenem MIC alone (M) (ECL1045 Enterobacter cloacae VIM-1): Z (MIC of greater than 10 μg/mL) | Meropenem MIC alone (M) (ECL1055 Enterobacter cloacae KPC-3, TEM): Y (MIC of 1 μg/mL to 10 μg/mL) | Meropenem MIC alone (M) (ECL1057 Enterobacter cloacae NDM-1, TEM-1, CTX-M-15): Z (MIC of greater than 10 μg/mL) | Meropenem MIC alone (M) (ECL1084 Enterobacter cloacae CTX-M-15, ACT-16, NDM-1): Z (MIC of greater than 10 μg/mL) | Meropenem MIC alone (M) (ECL1085 Enterobacter cloacae SHV-31(2be), TEM-1(2b), CTX-M-15, NDM-1): Z (MIC of greater than 10 μg/mL) | Meropenem MIC alone (M) (ECL1087 Enterobacter cloacae VIM-1): Z (MIC of greater than 10 μg/mL) | Meropenem MIC alone (M) (ECL1090 Enterobacter cloacae TEM-1(2b), CTX-M-22, ACT-type, IMP-8): Y (MIC of 1 μg/mL to 10 μg/mL) | Meropenem MIC alone (M) (ECL1092 Enterobacter cloacae TEM-OSBL(2b), ACT-32, VIM-1): Y (MIC of 1 μg/mL to 10 μg/mL) | Meropenem MIC alone (M) (ECL1093 Enterobacter cloacae TEM-OSBL(2b), ACT-32, VIM-1): Y (MIC of 1 μg/mL to 10 μg/mL) | Meropenem MIC alone (M) (ECL1094 Enterobacter cloacae VIM-1): Z (MIC of greater than 10 μg/mL) | Meropenem MIC alone (M) (ECL1095 Enterobacter cloacae SHV-12(2be), TEM-OSBL(2b), CMY-4, ACT-16, VIM-4, OXA-48(c)): Z (MIC of greater than 10 μg/mL) | Meropenem MIC alone (M) (ECL1096 Enterobacter cloacae CMY-4, VIM-4, OXA-48(c)): Z (MIC of greater than 10 μg/mL) | Meropenem MIC alone (M) (ECL1097 Enterobacter cloacae SHV-31(2be), TEM-OSBL(2b), CTX-M-15, ACT-31, NDM-1): Z (MIC of greater than 10 μg/mL) | Meropenem MIC alone (M) (ECL1098 Enterobacter cloacae TEM-OSBL(2b), DHA-1, ACT-16, NDM-1): Z (MIC of greater than 10 μg/mL) | Meropenem MIC alone (M) (KP1054 Klebsiella pneumoniae VIM-1, SHV-11): Y (MIC of 1 μg/mL to 10 μg/mL) | Meropenem MIC alone (M) (KP1059 Klebsiella pneumoniae VIM-1, SHV-11): Z (MIC of greater than 10 μg/mL) | Meropenem MIC alone (M) (KP1061 Klebsiella pneumoniae KPC-3, TEM-1, SHV-11): Z (MIC of greater than 10 μg/mL) | Meropenem MIC alone (M) (KP1064 Klebsiella pneumoniae KPC-2, TEM-1, SHV-11): Z (MIC of greater than 10 μg/mL) | Meropenem MIC alone (M) (KP1065 Klebsiella pneumoniae VIM-1, SHV-11): Y (MIC of 1 μg/mL to 10 μg/mL) | Meropenem MIC alone (M) (KP1070 Klebsiella pneumoniae KPC-2, SHV-11, TEM-1): Z (MIC of greater than 10 μg/mL) | Meropenem MIC alone (M) (KP1074 Klebsiella pneumoniae KPC-3, SHV-11, TEM): Z (MIC of greater than 10 μg/mL) | Meropenem MIC alone (M) (KP1081 Klebsiella pneumoniae NDM-1, TEM-1, SHV-11, CMY-6, CTX-M-15): Z (MIC of greater than 10 μg/mL) | Meropenem MIC alone (M) (KP1158 Klebsiella pneumoniae KPC-2, VIM-1): Z (MIC of greater than 10 μg/mL) | Meropenem MIC alone (M) (KP1159 Klebsiella pneumoniae SHV-1(2b), CTX-M-15, IMP-4): Z (MIC of greater than 10 μg/mL) | Meropenem MIC alone (M) (KP1160 Klebsiella pneumoniae SHV-28(2be), CTX-M-15, IMP-26): Z (MIC of greater than 10 μg/mL) | Meropenem MIC alone (M) (KP1161 Klebsiella pneumoniae NDM-1): Z (MIC of greater than 10 μg/mL) | Meropenem MIC alone (M) (KP1162 Klebsiella pneumoniae SHV-1(2b), CTX-M-15, IMP-4): Z (MIC of greater than 10 μg/mL) | Meropenem MIC alone (M) (KP1163 Klebsiella pneumoniae SHV-11(2b), MOX-1, KPC-2, VIM-1): Z (MIC of greater than 10 μg/mL) | Meropenem MIC alone (M) (KP1164 Klebsiella pneumoniae SHV-12(2be), VIM-1): Z (MIC of greater than 10 μg/mL) | Meropenem MIC alone (M) (KP1165 Klebsiella pneumoniae SHV-11(2b), CTX-M-15, VIM-27): Z (MIC of greater than 10 μg/mL) | Meropenem MIC alone (M) (KP1166 Klebsiella pneumoniae SHV-5(2be), VIM-26): Z (MIC of greater than 10 μg/mL) | Meropenem MIC alone (M) (KP1168 Klebsiella pneumoniae SHV-11(2b), CTX-M-15, VIM-27): Z (MIC of greater than 10 μg/mL) | Meropenem MIC alone (M) (KP1169 Klebsiella pneumoniae SHV-11(2b), VIM-1): Z (MIC of greater than 10 μg/mL) | Meropenem MIC alone (M) (KP1170 Klebsiella pneumoniae SHV-11(2b), CTX-M-15, NDM-1): Z (MIC of greater than 10 μg/mL) | Meropenem MIC alone (M) (KP1172 Klebsiella pneumoniae SHV-31(2be), DHA-1, VIM-1): Z (MIC of greater than 10 μg/mL) | Meropenem MIC alone (M) (KP1173 Klebsiella pneumoniae TEM-33(2br), CTX-M-15, IMP-1): Y (MIC of 1 μg/mL to 10 μg/mL) | Meropenem MIC alone (M) (KP1174 Klebsiella pneumoniae CTX-M-14, IMP-1): Y (MIC of 1 μg/mL to 10 μg/mL) | Meropenem MIC alone (M) (KP1175 Klebsiella pneumoniae SHV-OSBL(2b), VIM-1): Z (MIC of greater than 10 μg/mL) | Meropenem MIC alone (M) (KP1176 Klebsiella pneumoniae SHV-12(2be), TEM-OSBL(2b), CMY-13, KPC-2, VIM-1): Z (MIC of greater than 10 μg/mL) | Meropenem MIC alone (M) (KP1177 Klebsiella pneumoniae SHV-OSBL(2b), TEM-OSBL(2b), CTX-M-15, NDM-1): Z (MIC of greater than 10 μg/mL) | Meropenem MIC alone (M) (KP1178 Klebsiella pneumoniae SHV-OSBL(2b), TEM-OSBL(2b), CTX-M-15, NDM-1): Z (MIC of greater than 10 μg/mL) | Meropenem MIC alone (M) (KP1179 Klebsiella pneumoniae SHV-12(2be), TEM-OSBL(2b), CTX-M-15, NDM-7): Z (MIC of greater than 10 μg/mL) | Meropenem MIC alone (M) (KP1180 Klebsiella pneumoniae SHV-OSBL(2b), TEM-OSBL(2b), CTX-M-15, DHA-1, IMP-26): Y (MIC of 1 μg/mL to 10 μg/mL) | Meropenem MIC alone (M) (KP1181 Klebsiella pneumoniae SHV-OSBL(2b), CTX-M-15, IMP-26): Z (MIC of greater than 10 μg/mL)
